Data: US20220107328A1, “METHODS OF TREATING LIVER DISEASES” (Camp4 Therapeutics Corporation, priority 2018, published 2022)
“Also recorded” adds a separate entry of the source.

Experiments:
[1] = Serum insulin quantification in mice (ELISA); assay type: in vivo, mouse
Description: Mouse 7-8 week old C57BL/6J mice were divided into 9 groups. Each group had 8 male mice. All mice were given a high sucrose diet for 10 days (Diet no. 901683; 74% kCal from sucrose. […] Food was removed at the start of the light cycle, about 7 am, except on the last day, when food was left in the cage until termination. On day 7-10, mice were administered daily (QD) via oral gavage, candidate compounds at a volume of 10 mL/kg with the compound in vehicle solution (0.5% methylcellulose/0.2% tween20). Vehicle alone was administered to control group 1. OSI-027 was administered at 25 mg/kg, 10 mg/kg, 5 mg/kg, and 2 mg/kg to groups 2-5. […] The treatment was administered in the evening on Days 7 to 10 and in the morning on Day 11, starting at 5 am. On Day 11, mice were terminated 4 hours post last dose at 9 am, for a total of 5 doses of each candidate compound. Mice were weighed 2×/week until Day 11. Liver and blood samples were collected after mice were terminated. Liver samples were process for mRNA extraction as previously described. Blood samples were processed for serum collection. […] Serum insulin levels in mouse samples were quantified using an ELISA kit purchased from Crystal Chem (Catalog #90080), per the manufacturer's instructions.

[2] = tested on: phosphorylated AKT (pAKT/AKT); assay: Western blot of phosphorylated AKT in human hepatocytes; assay type: cell-based; conditions: 3 μM
Description: (§1) Levels of phosphorylated S6, AKT, and NDRG1 proteins were determined as compared to total S6, AKT, and NDRG1 protein. PNPLA3 mRNA expression was quantified and normalized to housekeeping gene GUSB.

[3] = tested on: PNPLA3 mRNA in mouse liver; assay: High sucrose diet mouse pharmacology study, liver PNPLA3 mRNA; assay type: in vivo
Description: LY2157299 was also tested in vivo. C57BL/6J mice were divided into […]. Each group had 6 male mice. […] Groups 1-10 received food throughout the dosing period. […] Eyes were also collected for groups 11-14.
(§2) Mouse liver tissues were pulverized in liquid nitrogen and aliquoted into small microtubes. TRIzol (Invitrogen Cat #15596026) was added to the tubes to facilitate cell lysis from tissue samples. The TRIzol solution containing the disrupted tissue was then centrifuged and the supernatant phase was collected. Total RNA was extracted from the supernatant using Qiagen RNA Extraction Kit (Qiagen Cat#74182) and the PNPLA3 mRNA levels were analyzed using qRT-PCR.
(§3) C57BL/6J mice were divided into 14 groups. Each group had 6 male mice. All mice were given an HS diet at night on a synchronized schedule. […] The animals received no food at night on Day 10.
as §2, with “Cat #74182)” for “Cat#74182)”, “target” for “PNPLA3”, “qRT-PCR. mRNA levels for PNPLA3, PNPLA5, COL1A1, and PCSK9 were assessed.” for “qRT-PCR.”

[4] = tested on: PNPLA3 mRNA; assay: qRT-PCR of PNPLA3 mRNA in compound-treated mouse hepatocytes; assay type: cell-based; conditions: mouse hepatocytes, 1 μM, normalized to ACTB
Description: (§4) Analysis of the fold changes in expression as measured by qRT-PCR were performed using the technique below. The control was DMSO, and the treatment was the selected compound (CPD). The internal control was GAPDH or B-Actin (or otherwise indicated), and the gene of interest is the target. First, the averages of the 4 conditions were calculated for normalization: DMSO:GAPDH, DMSO:Target, CPD: GAPDH, and CPD:Target. Next, the ΔCT of both control and treatment were calculated to normalize to internal control (GAPDH) using (DMSO:Target)−(DMSO:GAPDH)=ΔCT control and (CPD:Target)−(CPD: GAPDH)=ΔCT experimental. Then, the ΔΔCT was calculated by ΔCT experimental−ΔCT control. The Expression Fold Change (or Relative Quantification, abbreviated as RQ) was calculated by 2−(ΔΔCT) (2-fold expression change was shown by RNA-Seq results provided herein).
Compounds were tested at concentrations ranging from 0.01 μM to 50 μM. […] PNPLA3 levels were normalized to the level of a house keeping gene ACTB.

[5] = tested on: lipid content in primary human hepatocytes (M/M homozygous); assay: Lipid (Oil Red O) staining of primary human hepatocytes; assay type: cell-based; conditions: 3.3 μM
Source text: DMSO and chloroquine were used as controls. After treatment, the cells were fixed and stained with ORO using the BioVision Lipid (Oil Red O) Staining Kit (cat #K580-24) according to the manufacturer's instructions. Parallel treatment samples were processed for qRT-PCR as previously described. Representative light microscopy images of each treatment are shown in FIG. 14A and a quantification of the PNPLA3 mRNA levels are shown in FIG. 14B.

[6] = tested on: PCSK9 mRNA in mouse liver; assay: High sucrose diet mouse dose response study, liver PCSK9 mRNA; assay type: in vivo; conditions: HS diet mice, 6 hours post dose
Description: as §3
as §2, with “Cat #74182)” for “Cat#74182)”, “target” for “PNPLA3”, “qRT-PCR. mRNA levels for PNPLA3, PNPLA5, COL1A1, and PCSK9 were assessed.” for “qRT-PCR.”

[7] = tested on: phosphorylated NDRG1 (pNDRG1/NDRG1); assay: Western blot of phosphorylated NDRG1 in human hepatocytes; assay type: cell-based; conditions: 3 μM, mTORC2 pathway, time point not stated
Description: as §1

[8] = tested on: phosphorylated S6 (pS6/S6); assay: Western blot of phosphorylated S6 in human hepatocytes; assay type: cell-based; conditions: 3 μM
Description: as §1

[9] = tested on: COL1A1 mRNA in mouse liver; assay: High sucrose diet mouse dose response study, liver COL1A1 mRNA; assay type: in vivo; conditions: HS diet mice, 6 hours post dose
Description: as §3
as §2, with “Cat #74182)” for “Cat#74182)”, “target” for “PNPLA3”, “qRT-PCR. mRNA levels for PNPLA3, PNPLA5, COL1A1, and PCSK9 were assessed.” for “qRT-PCR.”

[10] = tested on: PNPLA3 mRNA; assay: qRT-PCR of PNPLA3 mRNA in compound-treated primary human hepatocytes
Description: Cryopreserved hepatocytes were cultured in plating media for 16 hours, transferred to maintenance media for 4 hours. Cultured on serum-free media for 2 hours, then a compound was added. The hepatocytes were maintained on the serum-free media for 16 hours prior to gene expression analysis.
Human hepatocytes cultured as described above were plated in 24-well format, adding 375,000 cells per well in a volume of 500 μl plating medium. Four hours before treatment, cells were washed with PBS and the medium was changed to either: fresh maintenance medium (complete) or modified maintenance medium.
Compound stocks were prepared at 1000× final concentration and added in a 2-step dilution to the medium to reduce risk of a compound precipitating out of solution when added to the cells, and to ensure reasonable pipetting volumes. One at a time, each compound was first diluted 10-fold in warm (about 37° C.) modified maintenance medium (initial dilution=ID), mixed by vortexing, and the ID was diluted 100-fold into the cell culture (e.g. 5.1 μl into 1 well of a 24-well plate containing 0.5 mL medium). The plate was mixed by carefully swirling and after all wells were treated and returned to the incubator overnight. If desired, separate plates/wells were treated with vehicle-only controls and/or positive controls. If using multi-well plates, controls were included on each plate. After about 18 hours, cells were harvested for further analysis, e.g., ChIP-seq, RNA-seq, ATAC-seq, etc.
as §4
The aim of the validation studies was to test the identified compounds from key pathways, and expand the compound franchise to identify other potential hits. Candidate compounds were subjected to validation with qRT-PCR in human hepatocytes. qRT-PCR was performed on samples of primary human hepatocytes from a second donor treated with the candidate compounds. Compounds were tested at concentrations ranging from 0.01 μM to 50 μM, with the majority tested at 10 μM.
Primary human hepatocytes and stellate cells were also incubated with inhibitors of the TGFβ pathway and PNPLA3 gene expression changes assessed via qRT-PCR as previously described. In addition, primary hepatocytes and stellate cells were treated with TGFβ-ligand alone or with selected the small molecule inhibitors for 18 hours and subsequently harvested. for gene expression assays.
The other set was harvest for mRNA processing as previously described.

[11] = 35 min to 20 hrs, relative to DMSO control

COc1cccc2cc(-c3nc([C@H]4CC[C@H](C(=O)O)CC4)n4ncnc(N)c34)[nH]c12 [OSI-027]
serum insulin (in words) ([1]; 10 mg/kg, 5 mg/kg, and 2 mg/kg): no significant changes in serum glucose or serum insulin levels | serum insulin (in words) ([1]; 25 mg/kg): significant increased | phosphorylated AKT (pAKT/AKT) over time (in words) [2, 11]: decreased at 4.5 hours | pAKT (473)/AKT ([2]; human hepatocytes, mTORC2 pathway, time point not stated): 0.06 | PNPLA3 liver mRNA after exclusion of outliers and re-analysis (in words) ([3]; 6 hours post dose): more significant dose dependent decrease in PNPLA3 mRNA | PNPLA3 liver mRNA, 6 hours post-dose (in words) ([3]; HS diet mice, QD oral gavage four days, OSI-027 50 mg/kg, PF-04691502 10 mg/kg): reduced PNPLA3 mRNA | PNPLA3 liver mRNA, 12 hours post-dose (in words) ([3]; HS diet mice, QD oral gavage four days, OSI-027 50 mg/kg, PF-04691502 10 mg/kg, LY2157299 75 mg/kg): reduced PNPLA3 mRNA | PNPLA3 liver mRNA, dose titration (in words) ([3]; HS diet mice, decreasing doses QD oral gavage four days, 6 hours post dose): dose dependent decrease | Relative PNPLA3 mRNA levels [4]: 0.24 ± 0.12 | lipid content (in words) [5]: reduced lipid content in primary human hepatocytes | PCSK9 liver mRNA, dose titration (in words) [6]: dose dependent decrease | p-NDRG1/NDRG1 [7]: 0.46 | phosphorylated S6 (pS6/S6) over time (in words) [8, 11]: decreased at 1 hour | pS6/S6 ([8]; human hepatocytes, mTORC1 pathway, time point not stated): 0.06 | COL1A1 liver mRNA, dose titration (in words) [9]: did not result in a significant decrease in COL1A1 mRNA | PNPLA3 mRNA expression level over time (in words) ([10]; 3 μM, 35 min to 20 hrs, normalized to GUSB): decreased levels of PNPLA3 expression after 3 hours; also recorded: down regulated PNPLA3 gene expression | Relative PNPLA3 level vs Untreated (±Standard Deviation) ([10]; (I/I) homozygous human hepatocytes, 0.04 uM, normalized to GUSB): 0.80 ± 0.070 | Relative PNPLA3 level vs Untreated (±Standard Deviation) ([10]; (I/I) homozygous human hepatocytes, 0.122 uM, normalized to GUSB): 0.80 ± 0.080 | Relative PNPLA3 level vs Untreated (±Standard Deviation) ([10]; (I/I) homozygous human hepatocytes, 0.37 uM, normalized to GUSB): 0.68 ± 0.023 | Relative PNPLA3 level vs Untreated (±Standard Deviation) ([10]; (I/I) homozygous human hepatocytes, 3.3 uM, normalized to GUSB): 0.39 ± 0.048 | Relative PNPLA3 level vs Untreated (±Standard Deviation) ([10]; (I/M) heterozygous human hepatocytes, 0.04 uM, normalized to GUSB): 1.04 ± 0.081 | Relative PNPLA3 level vs Untreated (±Standard Deviation) ([10]; (I/M) heterozygous human hepatocytes, 0.122 uM, normalized to GUSB): 1.05 ± 0.051 | Relative PNPLA3 level vs Untreated (±Standard Deviation) ([10]; (I/M) heterozygous human hepatocytes, 0.37 uM, normalized to GUSB): 0.64 ± 0.022 | Relative PNPLA3 level vs Untreated (±Standard Deviation) ([10]; (I/M) heterozygous human hepatocytes, 3.3 uM, normalized to GUSB): 0.44 ± 0.029 | Relative PNPLA3 level vs Untreated (±Standard Deviation) ([10]; (M/M) homozygous human hepatocytes, 0.04 uM, normalized to GUSB): 0.70 ± 0.082 | Relative PNPLA3 level vs Untreated (±Standard Deviation) ([10]; (M/M) homozygous human hepatocytes, 0.122 uM, normalized to GUSB): 0.56 ± .0071 | Relative PNPLA3 level vs Untreated (±Standard Deviation) ([10]; (M/M) homozygous human hepatocytes, 0.37 uM, normalized to GUSB): 0.32 ± 0.096 | Relative PNPLA3 level vs Untreated (±Standard Deviation) ([10]; (M/M) homozygous human hepatocytes, 3.3 uM, normalized to GUSB): 0.21 ± 0.0024 | EC50 ([10]; Homo sapiens, Hepatocyte): 60 nM
